According to paper PMC7551609 (Viruses, 2020):
“Also recorded” adds a separate entry of the source. Counter-ions that a name gives are not always drawn. Like-named read-outs stand apart in the source and are kept apart here.

Tests used:
ZIKV PRVABC59 strain = assay: Viral inhibition assay, post-treatment, new World strain, Vero cells; assay type: cell-based, Zika virus; settings: for inhibitor category based on SI-MTT and SI-XTT / inhibitor category based on SI-MTT / inhibitor category based on SI-XTT: ZIKV PRVABC59, Vero; for EC50 / MIC: Zika virus; for EC50: new World ZIKV PRVABC59, Vero cells, post-treatment, 48 h; for MIC: new World ZIKV PRVABC59, read-out: PRVABC59 MIC (maximum effective concentration)
[1] = MTT cell viability in A549 cells; assay type: cell-based, human; settings: human, highest concentration used 50.00 µM, sentence also cites [17]
ZIKV Paraiba/2015 [2] = assay: Growth kinetics inhibition assay (infectious viral progeny), Vero cells; assay type: cell-based, Zika virus
ZIKV MR-766 strain = assay: Viral inhibition assay, post-treatment, old World strain, Vero cells; assay type: cell-based, Zika virus; settings: for inhibitor category based on SI-MTT and SI-XTT / inhibitor category based on SI-MTT / inhibitor category based on SI-XTT: ZIKV MR-766, Vero; for EC50 / MIC: Zika virus; for EC50: old World ZIKV MR-766, Vero cells, post-treatment; for MIC: old World ZIKV MR-766 strain, read-out: MR766 MIC (maximum effective concentration)
ZIKV MR-766 = settings: ZIKV MR-766, Vero cells; cited from earlier work
ZIKV DAKAR B11514 = tested on: ZIKV DAKAR B11514; set-up: method as in ref 32, 34 = [32]; settings: ZIKV DAKAR B11514, Vero cells; cited from earlier work
ZIKV Paraiba/2015 [3] = assay: Viral inhibition assay, co-treatment, Vero cells; assay type: cell-based, Zika virus; settings: for Co-treatment MIC (maximum effective concentration): Vero cells, ZIKV Paraiba/2015, co-treatment; for inhibitor category based on SI-MTT / inhibitor category based on SI-MTT and SI-XTT / inhibitor category based on SI-XTT: co-treatment, Paraiba/2015, Vero
[4] = XTT cell proliferation assay in Vero cells; assay type: cell-based, African green monkey; settings: African green monkey, non-infected Vero cells, 36 h post-treatment
ZIKV KX197192.1 strain = tested on: ZIKV KX197192.1 strain; set-up: method as in ref 32, 34 = [32]; settings: Huh7 cells; cited from earlier work
ZIKV Paraiba/2015 [5] = assay: Viral inhibition assay, post-treatment, human A549 cells; assay type: cell-based, Zika virus; settings: for inhibitor category based on SI-MTT and SI-XTT: Paraiba/2015, A549 cells; for MIC / EC50: Zika virus; for MIC: in Homo sapiens, read-out: A549 cells MIC (maximum effective concentration); for EC50: ZIKV Paraiba/2015, A549 cells, post-treatment, 36 h
ZIKV PRVABC59 [6] = settings: ZIKV PRVABC59, Vero cells; cited from earlier work
[7] = MTT cell viability assay in Vero cells; assay type: cell-based, African green monkey; settings: African green monkey, non-infected Vero cells, 36 h post-treatment
ZIKV Paraiba/2015 [8] = assay: Viral inhibition assay, pre-treatment (prophylactic), Vero cells; assay type: cell-based, Zika virus; settings: for MIC / EC50: Zika virus; for MIC: read-out: Pre-treatment MIC (maximum effective concentration); for EC50: ZIKV Paraiba/2015, Vero cells, pre-treatment 12 h before infection
[9] = XTT cell proliferation in A549 cells; assay type: cell-based, human; settings: human, highest concentration used 50.00 µM, sentence also cites [17]
ZIKV Paraiba/2015 [10] = assay: Viral inhibition assay, post-infection treatment, Vero cells; assay type: cell-based, Zika virus; settings: for EC50: ZIKV Paraiba/2015, Vero cells, post-infection treatment, 36 h; for MIC: read-out: Post-treatment MIC (maximum effective concentration); for inhibitor category based on SI-MTT and SI-XTT / inhibitor category based on SI-MTT / inhibitor category based on SI-XTT: post-treatment, Paraiba/2015, Vero
[11] = tested on: ZIKV cocktail of MR-766, FSS13025, and MEX-2-81 strains; settings: JEG-3 and HBME cells; cited from earlier work
ZIKV MEX_I_7 strain = settings: ZIKV MEX_I_7, Huh7, HeLa and HAEC cells; cited from earlier work
ZIKV-MEX-2-81 = settings: cited from earlier work
ZIKV SL1602 strain = settings: ZIKV SL1602, Vero cells; cited from earlier work
ZIKV PRVABC59 [12] = tested on: ZIKV PRVABC59; set-up: method as in ref 22 = [22]; settings: ZIKV PRVABC59, Huh-7 cells; cited from earlier work
ZIKV PRVABC59 [13] = tested on: ZIKV PRVABC59; set-up: method as in ref 22 = [22]; settings: ZIKV PRVABC59, U251 cells; cited from earlier work
ZIKV PRVABC59 [14] = tested on: ZIKV PRVABC59; set-up: method as in ref 22 = [22]; settings: ZIKV PRVABC59, SF268 cells; cited from earlier work
ZIKV FB-GWUH-2016 = tested on: ZIKV FB-GWUH-2016; set-up: method as in ref 27 = [27]; settings: ZIKV FB-GWUH-2016, RPE cells; cited from earlier work
[15] = tested on: ZIKV cocktail of MR-766, FSS13025, and MEX-2-81; settings: JEG-3 cells, ZIKV cocktail of MR-766, FSS13025, MEX-2-81; cited from earlier work
[16] = 0.1, 1, 10 EC50, all time points (24, 48, 72 h post-treatment), MOI 0.1
[17] = pre-treatment, Paraiba/2015, Vero
[18] = 1 EC50, all the analyzed times, may be caused by toxicity

| Compound | EC50 (ZIKV PRVABC59 strain) | MIC (ZIKV PRVABC59 strain) | CC50 [1] | EC50 (ZIKV MR-766 strain) | MIC (ZIKV MR-766 strain) | Co-treatment MIC (maximum effective concentration) (ZIKV Paraiba/2015 [3]) | inhibitor category based on SI-MTT (ZIKV Paraiba/2015 [3]) | CC50 at 36 h ([4]; confluent monolayers) | inhibitor category based on SI-MTT and SI-XTT (ZIKV Paraiba/2015 [5]) | MIC (ZIKV Paraiba/2015 [5]) | EC50 (ZIKV Paraiba/2015 [5]) | CC50 at 36 h ([7]; confluent monolayers) | MIC (ZIKV Paraiba/2015 [8]) | EC50 (ZIKV Paraiba/2015 [8]) | inhibitor category based on SI-XTT (ZIKV Paraiba/2015 [8]; [17]) | CC50 [9] | EC50 (ZIKV Paraiba/2015 [10]) | EC50 (ZIKV Paraiba/2015 [10]; Zika virus, Vero) | MIC (ZIKV Paraiba/2015 [10]; Zika virus) | inhibitor category based on SI-MTT and SI-XTT (ZIKV Paraiba/2015 [10]) | other results |
| --- | --- | --- | --- | --- | --- | --- | --- | --- | --- | --- | --- | --- | --- | --- | --- | --- | --- | --- | --- | --- | --- |
| O=c1cnn([C@@H]2O[C@H](CO)[C@@H](O)[C@H]2O)c(=O)[nH]1 [Azauridine, 6-azauridine] | 1.46 µM | < 11.1 µM | > 50 µM | 0.76 µM | < 3.7 µM | < 100.00 µM | weak | > 1350 µM | moderate | < 1.23 µM | 0.44 µM | 156 µM | > 100 µM | 64.5 µM | weakest | > 50 µM | 4.29 µM | 3.72 µM | > 100 µM | moderate to weak | inhibitor category based on SI-MTT and SI-XTT (ZIKV PRVABC59 strain): moderate; effect on production of infectious viral progeny (viral titers) (ZIKV Paraiba/2015 [2]; [16]): dose-dependent inhibitory effect; inhibitor category based on SI-MTT and SI-XTT (ZIKV MR-766 strain): moderate; EC50 (ZIKV MR-766): 0.98 µM; EC50 (ZIKV DAKAR B11514): 1.5 µM; inhibitor category based on SI-MTT and SI-XTT (ZIKV Paraiba/2015 [3]): weak; EC50 (ZIKV KX197192.1 strain): 2.3 µM; EC50 (ZIKV PRVABC59 [6]): 0.61 µM; inhibitor category based on SI-MTT and SI-XTT (ZIKV Paraiba/2015 [8]; [17]): weak |
| COc1c(C)c2c(c(O)c1C/C=C(\C)CCC(=O)O)C(=O)OC2 [Mycophenolic acid] | 0.22 µM | < 1.23 µM | > 50 µM | 0.15 µM | < 1.23 µM | < 11.10 µM | weak | > 1350 µM | weak | < 11.1 µM | 0.65 µM | 275 µM | > 100 µM | 7.58 µM | potent | > 50 µM | 4.26 µM | 4.34 µM | > 100 µM | moderate to weak | EC50 [11]: 0.1 µM; inhibitor category based on SI-MTT and SI-XTT (ZIKV PRVABC59 strain): potent; effect on production of infectious viral progeny (viral titers) (ZIKV Paraiba/2015 [2]; [16]): dose-dependent inhibitory effect; inhibitor category based on SI-MTT and SI-XTT (ZIKV MR-766 strain): most potent; also recorded: potent; EC50 (ZIKV MR-766): 0.11 µM; EC50 (ZIKV MEX_I_7 strain): < 2 µM; inhibitor category based on SI-MTT and SI-XTT (ZIKV Paraiba/2015 [3]): weak; EC50 (ZIKV-MEX-2-81; ZIKV MEX-2-81, U2OS cells): 0.4 µM; EC50 (ZIKV PRVABC59 [6]): 0.14 µM; EC50 (ZIKV SL1602 strain): 0.42 µM; inhibitor category based on SI-MTT (ZIKV Paraiba/2015 [8]; [17]): Potent; also recorded: moderate |
| NCC(=O)Nc1ccc(-n2nc(C(F)(F)F)cc2-c2ccc3c(ccc4ccccc43)c2)cc1 [OSU-03012] | 1.68 µM | > 11.1 µM | > 50 µM | 0.81 µM | < 11.1 µM | > 100.00 µM | weak | – | moderate | < 1.23 µM | 0.21 µM | – | < 3.7 µM | 0.93 µM | highest potent | > 50 µM | 8.4 µM | 6.85 µM | < 33.3 µM | weakest | inhibitor category based on SI-MTT (ZIKV PRVABC59 strain): weak; inhibitor category based on SI-XTT (ZIKV PRVABC59 strain): moderate; effect on production of infectious viral progeny (viral titers) (ZIKV Paraiba/2015 [2]; [18]): Complete inhibition; inhibitor category based on SI-MTT (ZIKV MR-766 strain): weak; inhibitor category based on SI-XTT (ZIKV MR-766 strain): moderate; EC50 (ZIKV PRVABC59 [12]): 0.82 to 0.88 µM; EC50 (ZIKV Paraiba/2015 [3]; Zika virus, Vero): 1.77 µM; inhibitor category based on SI-XTT (ZIKV Paraiba/2015 [3]): potent; CC50 at 36 h [4]: 132 µM; EC50 (ZIKV-MEX-2-81; ZIKV-MEX-2-81, U2OS cells): 0.9 µM; EC50 (ZIKV PRVABC59 [13]): 0.84 µM; CC50 at 36 h [7]: 6.39 µM; inhibitor category based on SI-MTT (ZIKV Paraiba/2015 [8]; [17]): moderate; inhibitor category based on SI-MTT (ZIKV Paraiba/2015 [10]): weak; inhibitor category based on SI-XTT (ZIKV Paraiba/2015 [10]): weak; EC50 (ZIKV PRVABC59 [14]): 1.18 µM |
| COC1=CC(c2cc3ccccc3[nH]2)=N/C1=C\c1[nH]c(C)cc1C [Obatoclax, Obatoclax mesylate] | 0.41 µM | < 1.23 µM | > 50 µM | 0.37 µM | < 1.23 µM | < 3.70 µM | Potent | 60.4 µM | weak | < 1.23 µM | 0.64 µM | 17.6 µM | < 11.1 µM | 2.96 µM | – | > 50 µM | 0.63 µM | 0.58 µM | < 0.01 µM | moderate to weak | inhibitor category based on SI-MTT (ZIKV PRVABC59 strain): weak; inhibitor category based on SI-XTT (ZIKV PRVABC59 strain): potent; effect on production of infectious viral progeny (viral titers) (ZIKV Paraiba/2015 [2]; [18]): Complete inhibition; inhibitor category based on SI-MTT (ZIKV MR-766 strain): weak; inhibitor category based on SI-XTT (ZIKV MR-766 strain): moderate; EC50 (ZIKV FB-GWUH-2016): 0.04 µM; inhibitor category based on SI-XTT (ZIKV Paraiba/2015 [3]): potent; inhibitory activity [15]: did not exhibit inhibitory activity; inhibitor category based on SI-MTT (ZIKV Paraiba/2015 [8]; [17]): moderate; inhibitor category based on SI-MTT (ZIKV Paraiba/2015 [10]): weak; inhibitor category based on SI-XTT (ZIKV Paraiba/2015 [10]): potent |
